Measurements reported in PubChem BioAssay (NCI).
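Growth conditions: 96-well plates. Treatment: test compound, 48 hours, 5 concentrations. Analysis: linear interpolation between bracketing concentrations; unreached endpoints set to highest concentration. GI50 marks 50% less growth. TGI: total growth inhibition.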

How the values were obtained:
Assay in all cases: DTP human tumour cell line panel, 48 h
PC-3 prostate = tested on: PC-3 prostate
KM12 colon = tested on: KM12 colon
CCRF-CEM leukemia = tested on: CCRF-CEM leukemia
SNB-19 CNS = tested on: SNB-19 CNS
SR leukemia = tested on: SR leukemia
NCI-H23 lung = tested on: NCI-H23 lung
K-562 leukemia = tested on: K-562 leukemia
786-0 renal = tested on: 786-0 renal
NCI-H522 lung = tested on: NCI-H522 lung
UACC-62 melanoma = tested on: UACC-62 melanoma
SNB-75 CNS = tested on: SNB-75 CNS
HCT-15 colon = tested on: HCT-15 colon
BT-549 breast = tested on: BT-549 breast
HOP-62 NSCLC = tested on: HOP-62 NSCLC
SN12C renal = tested on: SN12C renal
MCF7 breast = tested on: MCF7 breast
OVCAR-4 ovarian = tested on: OVCAR-4 ovarian
NCI-H460 lung = tested on: NCI-H460 lung
TK-10 renal = tested on: TK-10 renal
SK-MEL-28 melanoma = tested on: SK-MEL-28 melanoma
SK-MEL-5 melanoma = tested on: SK-MEL-5 melanoma
COLO 205 colon = tested on: COLO 205 colon
U251 CNS = tested on: U251 CNS
SW-620 colon = tested on: SW-620 colon
IGROV1 ovarian = tested on: IGROV1 ovarian
SK-MEL-2 melanoma = tested on: SK-MEL-2 melanoma
HS 578T breast = tested on: HS 578T breast
HOP-92 NSCLC = tested on: HOP-92 NSCLC
SF-295 CNS = tested on: SF-295 CNS
SF-268 CNS = tested on: SF-268 CNS
UACC-257 melanoma = tested on: UACC-257 melanoma
OVCAR-8 ovarian = tested on: OVCAR-8 ovarian
HL-60(TB) leukemia = tested on: HL-60(TB) leukemia
MDA-MB-435 = tested on: MDA-MB-435
SF-539 CNS = tested on: SF-539 CNS
HCT-116 colon = tested on: HCT-116 colon
RXF 393 renal = tested on: RXF 393 renal
CAKI-1 renal = tested on: CAKI-1 renal
RPMI-8226 leukemia = tested on: RPMI-8226 leukemia
A498 renal = tested on: A498 renal
OVCAR-5 ovarian = tested on: OVCAR-5 ovarian
MOLT-4 leukemia = tested on: MOLT-4 leukemia
ACHN renal = tested on: ACHN renal
NCI-H226 lung = tested on: NCI-H226 lung
M14 melanoma = tested on: M14 melanoma
NCI/ADR-RES ovarian = tested on: NCI/ADR-RES ovarian
HT29 colon = tested on: HT29 colon
HCC-2998 colon = tested on: HCC-2998 colon
SK-OV-3 ovarian = tested on: SK-OV-3 ovarian
MALME-3M melanoma = tested on: MALME-3M melanoma
EKVX NSCLC = tested on: EKVX NSCLC
DU-145 prostate = tested on: DU-145 prostate
LOX IMVI melanoma = tested on: LOX IMVI melanoma
UO-31 renal = tested on: UO-31 renal
OVCAR-3 ovarian = tested on: OVCAR-3 ovarian
T-47D breast = tested on: T-47D breast
A549 NSCLC = tested on: A549 NSCLC
MDA-MB-231 breast = tested on: MDA-MB-231 breast

Compound: Cc1cc(I)cc(CN(C)CCCN2CCCC2)c1O
- GI50 (PC-3 prostate): 25 µM
- TGI (PC-3 prostate): 73.7 µM
- GI50 (KM12 colon): 20.3 µM
- TGI (KM12 colon): 46 µM
- GI50 (CCRF-CEM leukemia): 3.46 µM
- TGI (CCRF-CEM leukemia): 38.1 µM
- GI50 (SNB-19 CNS): 27.6 µM
- TGI (SNB-19 CNS): > 80.4 µM
- GI50 (SR leukemia): 7.52 µM
- TGI (SR leukemia): 36.6 µM
- GI50 (NCI-H23 lung): 30 µM
- TGI (NCI-H23 lung): > 100 µM
- GI50 (K-562 leukemia): 14.5 µM
- TGI (K-562 leukemia): 33.2 µM
- GI50 (786-0 renal): 14.4 µM
- TGI (786-0 renal): 30.3 µM
- GI50 (NCI-H522 lung): 20.7 µM
- TGI (NCI-H522 lung): 45.9 µM
- GI50 (UACC-62 melanoma): 5.47 µM
- TGI (UACC-62 melanoma): 13.1 µM
- GI50 (SNB-75 CNS): 15.3 µM
- TGI (SNB-75 CNS): 35.6 µM
- GI50 (HCT-15 colon): 19.1 µM
- TGI (HCT-15 colon): 47.5 µM
- GI50 (BT-549 breast): 13.9 µM
- TGI (BT-549 breast): 31.7 µM
- GI50 (HOP-62 NSCLC): 16.4 µM
- TGI (HOP-62 NSCLC): 34.8 µM
- GI50 (SN12C renal): 46.1 µM
- TGI (SN12C renal): > 100 µM
- GI50 (MCF7 breast): 12.8 µM
- TGI (MCF7 breast): 29.5 µM
- GI50 (OVCAR-4 ovarian): 34 µM
- TGI (OVCAR-4 ovarian): > 90.1 µM
- GI50 (NCI-H460 lung): 16.9 µM
- TGI (NCI-H460 lung): 38.4 µM
- GI50 (TK-10 renal): 17 µM
- TGI (TK-10 renal): 36 µM
- GI50 (SK-MEL-28 melanoma): 15.3 µM
- TGI (SK-MEL-28 melanoma): 29.9 µM
- GI50 (SK-MEL-5 melanoma): 13.1 µM
- TGI (SK-MEL-5 melanoma): 26 µM
- GI50 (COLO 205 colon): 15.6 µM
- TGI (COLO 205 colon): 33.1 µM
- GI50 (U251 CNS): 19.4 µM
- TGI (U251 CNS): 49.5 µM
- GI50 (SW-620 colon): 15.9 µM
- TGI (SW-620 colon): 35.4 µM
- GI50 (IGROV1 ovarian): 19.5 µM
- TGI (IGROV1 ovarian): 44.7 µM
- GI50 (SK-MEL-2 melanoma): 20.6 µM
- TGI (SK-MEL-2 melanoma): 40.4 µM
- GI50 (HS 578T breast): 13.6 µM
- TGI (HS 578T breast): 33.8 µM
- GI50 (HOP-92 NSCLC): 15.8 µM
- TGI (HOP-92 NSCLC): 59.1 µM
- GI50 (SF-295 CNS): 13.7 µM
- TGI (SF-295 CNS): 28.4 µM
- GI50 (SF-268 CNS): 17.2 µM
- TGI (SF-268 CNS): 49.2 µM
- GI50 (UACC-257 melanoma): 22.7 µM
- TGI (UACC-257 melanoma): > 57 µM
- GI50 (OVCAR-8 ovarian): 45.3 µM
- TGI (OVCAR-8 ovarian): > 100 µM
- GI50 (HL-60(TB) leukemia): 13.4 µM
- TGI (HL-60(TB) leukemia): 31.3 µM
- GI50 (MDA-MB-435): 12.9 µM
- TGI (MDA-MB-435): 28.6 µM
- GI50 (SF-539 CNS): 15.3 µM
- TGI (SF-539 CNS): 31 µM
- GI50 (HCT-116 colon): 15.5 µM
- TGI (HCT-116 colon): 55.6 µM
- GI50 (RXF 393 renal): 16.3 µM
- TGI (RXF 393 renal): 41 µM
- GI50 (CAKI-1 renal): 16.2 µM
- TGI (CAKI-1 renal): 32.2 µM
- GI50 (RPMI-8226 leukemia): 15.6 µM
- TGI (RPMI-8226 leukemia): 37.5 µM
- GI50 (A498 renal): 14.8 µM
- TGI (A498 renal): 33.6 µM
- GI50 (OVCAR-5 ovarian): 27.8 µM
- TGI (OVCAR-5 ovarian): > 94.7 µM
- GI50 (MOLT-4 leukemia): 16.1 µM
- TGI (MOLT-4 leukemia): 39.1 µM
- GI50 (ACHN renal): 23.1 µM
- TGI (ACHN renal): 65.4 µM
- GI50 (NCI-H226 lung): 30.7 µM
- TGI (NCI-H226 lung): > 100 µM
- GI50 (M14 melanoma): 16.4 µM
- TGI (M14 melanoma): 33 µM
- GI50 (NCI/ADR-RES ovarian): 36.7 µM
- TGI (NCI/ADR-RES ovarian): > 100 µM
- GI50 (HT29 colon): 9.52 µM
- TGI (HT29 colon): 24.4 µM
- GI50 (HCC-2998 colon): 19.1 µM
- TGI (HCC-2998 colon): 35.6 µM
- GI50 (SK-OV-3 ovarian): 20.5 µM
- TGI (SK-OV-3 ovarian): 61.2 µM
- GI50 (MALME-3M melanoma): 16.6 µM
- TGI (MALME-3M melanoma): 33.1 µM
- GI50 (EKVX NSCLC): 38.4 µM
- TGI (EKVX NSCLC): > 100 µM
- GI50 (DU-145 prostate): 31.4 µM
- TGI (DU-145 prostate): > 100 µM
- GI50 (LOX IMVI melanoma): 15 µM
- TGI (LOX IMVI melanoma): 30.6 µM
- GI50 (UO-31 renal): 20 µM
- TGI (UO-31 renal): > 60.9 µM
- GI50 (OVCAR-3 ovarian): 23.2 µM
- TGI (OVCAR-3 ovarian): > 88.2 µM
- GI50 (T-47D breast): 19 µM
- TGI (T-47D breast): 57.2 µM
- GI50 (A549 NSCLC): 29.9 µM
- TGI (A549 NSCLC): > 100 µM
- GI50 (MDA-MB-231 breast): 18.6 µM
- TGI (MDA-MB-231 breast): 49.9 µM
